We go through 13 compounds from article PMC8746645, “Isolation of Anti-Diabetic Active Compounds from Benincasae Exocarpium and Development of Simultaneous Analysis by HPLC-PDA” (Molecules, 2021).

Data set [1] deals with α-glucosidase from Saccharomyces cerevisiae (Saccharomyces cerevisiae, UniProt P53341). Briefly: α-glucosidase inhibitory activity assay (p-NPG substrate). As to conditions: for IC50: compounds, pH 6.8, 37 °C, 405 nm, mean ± SD (n = 3). It counts as biochemical. On the procedure:
Among the anti-diabetes activity assays, the Infinite® F200 PRO spectrophotometer (TECAN, Männedorf, Zürich, Switzerland) was used for the AGE formation inhibitory activity assay in the BSA-glucose and BSA-MGO systems. In addition, the α-glucosidase inhibitory activity assay was performed using Biotek EPOCH2 (Biotek, Winooski, VT, USA).
α-Glucosidase inhibitory activity was measured spectrophotometrically according to the previously described method. All samples were dissolved in 10% DMSO. This assay consisted of a 50 μL sample solution, 50 μL of 50 mM potassium phosphate buffer (pH 6.8), and 50 μL of 0.5 U/mL α-glucosidase was preincubated for 10 min at 37 °C. After incubation, 50 μL of p-NPG was added to the mixed assay mixtures. […] The inhibitory activity was calculated using the equation applied in the BSA-glucose assay, but Ac and As are the absorbance values of the control and sample, respectively.

The subject of data set [2] is advanced glycation end-products (AGEs) formation in BSA-methylglyoxal (MGO) system. Nature of the data set: AGE formation inhibitory assay, BSA-MGO system. It counts as biochemical, bovine. The protocol:
The AGE formation inhibitory assay of BSA-MGO was conducted using spectrophotometry according to a previously described method with modification. All samples were dissolved in 10% DMSO. The assay mixtures contained 50 µL of 50 mM phosphate buffer (pH 7.4) containing 0.02% sodium azide and BSA (10 mg/mL), 50 µL of 7 mM MGO, and 50 µL of sample. After incubation at 60 °C for 2 days, fluorescence was measured on excitation and emission wavelengths of 340 and 420 nm, respectively, in a 96-black well plate. AMG was used as a positive control. The inhibitory activity on AGE formation by BSA-MGO was calculated using the same equation applied in the BSA-glucose assay.

Data set [3] relates to advanced glycation end-products (AGEs) formation in bovine serum albumin (BSA)-glucose system. It counts as biochemical. The protocol: The AGE formation inhibitory assay of BSA-glucose was conducted using a spectrophotometric method developed in a previous study. All test samples were dissolved in 10% DMSO at five different concentrations (1000–10,000 μg/mL for the extract and fractions and 100–10,000 μM for the compounds). The assay mixtures contained the following constituents: 135 µL of 50 mM phosphate buffer (pH 7.4) containing 0.02% sodium azide and BSA (10 mg/mL), 135 µL of 0.4 M D-fructose and D-glucose, and 30 µL of sample. The mixture was incubated at 60 °C for 2 days. After incubation, the fluorescence was measured at an excitation wavelength of 350 nm and emission wavelength of 450 nm in a 96-black well plate. AMG was used as a positive control. The inhibitory activity on AGE formation of BSA-glucose was calculated using the following formula: {(Ac − As)/Ac} × 100, where Ac is the fluorescence of the control and As is the fluorescence of the sample. Controls contained the same reaction mixture, except that phosphate buffer was added instead of the sample. The half-maximal inhibitory concentration (IC50) values of triplicate measurements of the samples and AMG were calculated and expressed as the mean ± SD.

Details of data set [4]: method as in PMID 29885110. As to conditions: cited from earlier work.
[5] abbreviates: compounds, 60 °C, 2 days, fluorescence ex 340/em 420 nm, mean ± SD (n = 3).
Setting [6] is: compounds, 60 °C, 2 days, fluorescence ex 350/em 450 nm, mean ± SD (n = 3), read-out: IC50 BSA-Glucose.

Molecules are shown by their SMILES. Where two headings read alike, the source gives them in different places.

Chain of α-glucosidase from Saccharomyces cerevisiae (P53341 whole entry): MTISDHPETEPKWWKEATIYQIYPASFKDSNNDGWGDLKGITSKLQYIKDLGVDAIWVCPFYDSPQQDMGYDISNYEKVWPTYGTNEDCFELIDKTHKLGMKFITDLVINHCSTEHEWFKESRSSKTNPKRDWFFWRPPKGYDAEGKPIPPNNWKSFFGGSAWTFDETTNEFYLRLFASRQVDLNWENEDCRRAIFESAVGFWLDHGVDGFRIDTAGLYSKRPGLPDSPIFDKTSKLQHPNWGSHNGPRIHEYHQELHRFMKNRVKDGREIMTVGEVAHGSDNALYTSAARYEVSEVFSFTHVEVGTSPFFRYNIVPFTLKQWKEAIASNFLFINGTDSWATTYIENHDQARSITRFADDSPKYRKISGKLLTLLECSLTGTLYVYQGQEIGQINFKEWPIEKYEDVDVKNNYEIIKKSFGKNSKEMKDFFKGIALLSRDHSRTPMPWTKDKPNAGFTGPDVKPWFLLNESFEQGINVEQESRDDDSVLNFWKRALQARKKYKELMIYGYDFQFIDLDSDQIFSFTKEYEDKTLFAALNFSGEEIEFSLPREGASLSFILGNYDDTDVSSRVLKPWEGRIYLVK

As to `O=C(O)c1ccc(O)cc1` [Compound 1, p-hydroxybenzoic acid], the “α-glucosidase inhibitory activity (in words)” value in data set [1] is listed as “no, or slight, inhibitory activity”. In addition, the “inhibition of AGE formation in BSA-MGO system (in words)” value in data set [2] is reported as “no or slight inhibitory activity”. Besides, the “inhibition of AGE formation in BSA-glucose system (in words)” value in data set [3] is “no activity”.

What is called IC50 is the concentration that inhibits the measured activity by half. Regarding `O=c1cc(-c2ccc(O)cc2)oc2cc(O)c([C@@H]3O[C@H](CO)[C@@H](O)[C@H](O)[C@H]3O)c(O)c12` [Compound 5, isovitexin], the IC50 in data set [2] (setting [5]) is 7.49 ± 0.24 µM; in data set [3] (setting [6]) it was 20.2 ± 0.1 µM.

Turning to `C[C@@H]1O[C@@H](O[C@@H]2[C@@H](O)[C@H](O)[C@@H](CO)O[C@H]2c2c(O)cc(O)c3c(=O)cc(-c4ccc(O)cc4)oc23)[C@H](O)[C@H](O)[C@H]1O` [Compound 10, vitexin-2″-O-rhamnoside], the figures for the concentration for half-maximal inhibition (IC50) in data set [1], in data set [2] and in data set [3] were 12.8 ± 1.18 µM, 12.5 ± 0.81 µM and 29.6 ± 1.02 µM, respectively.

Consider `O=C(O)c1cc(O)c(O)c(O)c1` [Compound 8, gallic acid], for which the “inhibition of AGE formation in BSA-MGO system (in words)” value in data set [2] is listed as “no or slight inhibitory activity”. The results for the concentration for half-maximal inhibition (IC50) in data set [2] (setting [5]) and in data set [3] (setting [6]) were over 500 µM and 192 ± 2.15 µM, respectively.

For `N=C(N)NN` [Aminoguanidine, aminoguanidine], the “toxicity during clinical evaluation” value in data set [4] is “toxic”.

In the case of `O=c1cc(-c2ccc(O)cc2)oc2c([C@@H]3O[C@H](CO)[C@@H](O)[C@H](O)[C@H]3O)c(O)cc(O)c12` [Compound 6, vitexin], the IC50 came to 14.9 ± 3.66 µM in data set [2] (setting [5]) and 19.5 ± 1.47 µM in data set [3] (setting [6]).

For the compound `O=c1cc(-c2ccc(O)c(O)c2)oc2c([C@@H]3O[C@H](CO)[C@@H](O)[C@H](O)[C@H]3O)c(O)cc(O)c12` [Compound 7, orientin], the concentration for half-maximal inhibition (IC50) turned out to be 13.3 ± 0.65 µM in data set [2] (setting [5]) and 9.61 ± 0.27 µM in data set [3] (setting [6]).

For the compound `O=Cc1ccc(CO)o1` [Compound 4, 5-hydroxymethylfurfural], the “α-glucosidase inhibitory activity (in words)” value in data set [1] is “no, or slight, inhibitory activity”. For the same compound, the “inhibition of AGE formation in BSA-MGO system (in words)” value in data set [2] is reported as “no or slight inhibitory activity”. This compound also registered an IC50 in data set [2] (setting [5]) of 381 ± 14.7 µM. Moreover, in data set [3], the “inhibition of AGE formation in BSA-glucose system (in words)” value was “no activity”.

On to `O=C(O)c1ccc(O)c(O)c1` [Compound 2, protocatechuic acid], for which the IC50 was found to be 53.2 ± 23.2 µM in data set [2] (setting [5]) and 79.8 ± 1.91 µM in data set [3] (setting [6]).

Consider `COc1ccc(C=O)cc1O` [Compound 3, isovanillin], for which, in data set [1], the “α-glucosidase inhibitory activity (in words)” value is “no, or slight, inhibitory activity”. Besides, in data set [2], the “inhibition of AGE formation in BSA-MGO system (in words)” value is “no or slight inhibitory activity”. Further, the IC50 in data set [2] (setting [5]) was over 500 µM. For the same compound, the “inhibition of AGE formation in BSA-glucose system (in words)” value in data set [3] was “no activity”.

Turning to `O=c1cc(-c2ccc(O)cc2)oc2c([C@@H]3O[C@H](CO)[C@@H](O[C@@H]4O[C@H](CO)[C@@H](O)[C@H](O)[C@H]4O)[C@H](O)[C@H]3O)c(O)cc(O)c12` [Compound 11, vitexin-4″-O-glucoside], the IC50 is 65.4 ± 4.22 µM in data set [1], 11.6 ± 1.1 µM in data set [2] (setting [5]) and 14.5 ± 0.39 µM in data set [3] (setting [6]).

Turning to `Cl.N=C(N)NN` [AMG, aminoguanidine hydrochloride, reference compound], the “IC50 BSA-MGO” value in data set [2] (extract and fractions, 60 °C, 2 days, fluorescence ex 340/em 420 nm, mean ± SD (n = 3)) worked out at 167.32 ± 8.40 µg/mL. In data set [3] (extract and fractions, 60 °C, 2 days, fluorescence ex 350/em 450 nm, mean ± SD (n = 3)), the “IC50 BSA-Glucose” value came out at 217.93 ± 1.54 µg/mL.

Take `O=C(O)/C=C/c1ccc(O)c(O)c1` [Compound 9, caffeic acid]: the “α-glucosidase inhibitory activity (in words)” value in data set [1] is “no, or slight, inhibitory activity”. Further, the figures for the IC50 in data set [2] (setting [5]) and in data set [3] (setting [6]) were 43 ± 9.41 µM and 54.51 ± 0.3 µM, respectively.
